# Laboratory results taken from paper PMC4490944 (Journal of immunology (Baltimore, Md. : 1950), 2015).
# Columns and labels:
# [1] = molecular target: HLA-DR1 (DR1) (DRA*0101/DRB1*010101) (Homo sapiens, UniProt P01903+P01911, A100R/D57E/F55L/F60I/F76Y/I96L/L162R/M171V/P40L/Q125E/R42F/V115G/Y59C); test: Numerical modeling; assay type: binding; conditions: Scheme V
# MHC II = conditions: as previously reported; cited from earlier work
substance,measurement,setting,value
Ac-PRFVKQNTLRLAT [HA],k-3 (values that could produce the same fits),[1]; bound for same fit,less than 1×10^−4
same,k-6 (values that could produce the same fits),[1]; bound for same fit,less than 1×10^−4
same,k-7 (values that could produce the same fits),[1]; bound for same fit,less than 1×10^−4
same,k5,"[1]; best fit value, DM-MHC resolves into inactive MHC II in the absence of peptides, kept the same for HA and CLIP, 0.4 μM DR1, 0.4 μM DM",0.36 min⁻¹
same,intrinsic and DM-catalyzed dissociation half-life,MHC II,~ 100 hours
